In US9283233B2, “Method for on-demand contraception” (LABORATOIRE HRA PHARMA, priority 2009, dated 2016):

Legend:
[1] = single dose of 50 mg, within 72 hours after unprotected intercourse; cited from earlier work
[2] = 3 months of continuous daily administration to healthy cycling volunteers; assessment of ovarian hormones, follicular development, endometrial histology, bleeding patterns; format: in vivo, women; settings: one patient, 10 mg/day, missed 2 days of drug (days 1 and 2) in third treatment cycle
Experimental: For that purpose, health cycling volunteers received 3 months of continuous daily administration of ulipristal acetate (2.5, 5 or 10 mg) or placebo.
Assessment of ovarian hormones, follicular development, endometrial histology, and menstrual bleeding patterns was carried out during the third month of treatment.
This made the inventors think that ulipristal acetate could be used as a contraceptive which could be taken on-demand, rather than everyday as any hormonal contraceptive pill.

[3] = Multiple intakes of ulipristal acetate within a menstrual cycle after declared intercourse (pregnancy outcome); format: in vivo; settings: 30 mg after a declared intercourse, twice during a menstrual cycle; several women (5 in the table)
Experimental: Multiple Intakes of Ulipristal Acetate within a Menstrual Cycle
Several women received ulipristal acetate (30 mg) after a declared intercourse, twice during a menstrual cycle.

## CC(=O)O[C@]1(C(C)=O)CC[C@H]2[C@@H]3CCC4=CC(=O)CCC4=C3[C@@H](c3ccc(N(C)C)cc3)C[C@@]21C [ulipristal acetate, 17α-acetoxy-11β-[4-N,N-dimethylamino-phenyl)-19-norpregna-4,9-diene-3,20-dione]
[1]
  safety and efficacy as emergency contraception: safe and efficacious
[2]
  luteal activity or ovulation: no sign of luteal activity or ovulation
[3]
  pregnancy: No pregnancy was observed
